Measured values: patent US10294234B2, “HIV inhibitor compounds” (priority 2017, dated 2019)

Experiments:
[1] = system: HIV-1 (IIIB) in MT-4 cells; assay: Protein adjusted EC95 (high resolution antiviral assay with equilibrium dialysis plasma protein binding); assay type: cell-based; details: EC95 adjusted for plasma protein binding (10% plasma vs cell culture media)
Procedure: MT-4 HIV High Resolution Antiviral Assay
Assay protocol is identical to that described for the MT-4 antiviral assay with the following changes: Each drug is run in 2 series of quadruplicates with different starting concentrations for each series and 19 1.5 fold dilutions performed across the plate. […] Data is analyzed and Hill coefficients determined in Graph Pad Prism (San Diego, Calif.). EC95s were determined by the formula EC95=(19)^I/hill coefficient×EC50. HD values were determined for certain compounds and reported in Table 5 below as an illustrative example.
Equilibrium Dialysis Assay
Pooled plasma (from at least 3 males and 3 females) was from Bioreclamation IVT. Sodium EDTA was used as the anticoagulant. 10% plasma was diluted in 0.133M phosphate buffer consisted of 1.5% (w/v) Sodium EDTA.
RPMI cell culture media consisted 10% FBS was provided by biology department, Gilead Sciences, Inc.
Plasma Protein Binding Assay:
Studies were conducted in duplicate or triplicate using a Dianorm Equilibrium Dialyser (Harvard Apparatus, Holliston Mass.) with each cell consisting of a semipermeable membrane (2.4 cm working diameter) separating two 1 mL PTFE half-cells (Weder HG, Schildknecht J, Kesselring P. A new equilibrium dialyzing system. American Laboratory. 1971; 10: 15-21). Prior to the study, the dialysis membrane was soaked for approximately one hour in 0.133 M phosphate buffer, pH 7.4. 10% plasma and cell culture media spiked with 1 μM compound (1 mL) were placed into opposite sides of the assembled dialysis cells and the dialysis cells were then rotated slowly in a 37° C. water bath. After the equilibration period, matrix-containing samples from both sides were drained into pre-weighed polypropylene tubes. Post-dialysis 10% plasma samples were transferred into centrifuge tubes containing 1 mL of blank cell culture media. Post-dialysis cell culture media samples were transferred into centrifuge tubes containing 1 mL of blank 10% plasma. All samples weights were measured and recorded for calculations of volume shift and recovery. […]

in vivo = details: rat, in vivo
How it was run: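 Male SD rats (n=3/group, 0.27–0.32 kg), fasted overnight, given 0.5 or 1.0 mg/kg by 30-min IV infusion, or by oral gavage. Serial plasma samples (EDTA-K2) over 24 h measured by LC/MS/MS; non-compartmental PK analysis.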

COC(=O)N[C@H](C(=O)N[C@@H](Cc1ccc(C#Cc2ccc(N3CC4CCC(C3)N4C3COC3)nc2)cc1)[C@@H](O)CN(Cc1c(F)cc(-c2ccn(C(F)F)n2)cc1F)NC(=O)[C@@H](NC(=O)OC)C(C)(C)C(F)(F)F)C(C)(C)C(F)(F)F [Example 58, Methyl ((5S,8S,9S,14S)-11-(4-(1-(difluoromethyl)-1H-pyrazol-3-yl)-2,6-difluorobenzyl)-16,16,16-trifluoro-9-hydroxy-15,15-dimethyl-8-(4-((6-(8-(oxetan-3-yl)-3,8-diazabicyclo[3.2.1]octan-3-yl)pyridin-3-yl)ethynyl)benzyl)-3,6,13-trioxo-5-(1,1,1-trifluoro-2-methylpropan-2-yl)-2-oxa-4,7,11,12-tetraazahexadecan-14-yl)carbamate]
Protein Adjusted EC95 [1]: 353 nM
Vd (in vivo; male, SD, iv): 6.68 L/kg
RAT PO F (in vivo; male, SD, po, 2.5 mg/kg): 37.2%
RAT IV CL (in vivo; iv): 8 mL/min/kg
RAT IV T1/2 (in vivo; iv): 12.8 h
